Results on nine molecules are retold here after patent US20230105212A1, “BIPHENYL DERIVATIVE INHIBITOR, PREPARATION METHOD THEREFOR AND USE THEREOF” (SHANGHAI HANSOH BIOMEDICAL CO., LTD., priority 2020, published 2023).

The target in test [1] is T1, PD-L1 protein on the surface of MC38-hPDL1 tumor cells (Homo sapiens, UniProt Q9NZQ7).
T1 construct: expressed in transfected cells; host or cells: MC38-hPDL1 (mouse colon cancer cells)
As to the kind of experiment: Induction of endocytosis of PD-L1 on the surface of tumor cells (flow cytometry). Conditions: 16 hours incubation; for Emax: MC38-hPDL1 cells, read-out: MC38 maximum endocytosis rate; for IC50: inducing endocytosis of PD-L1, MC38-hPDL1 cells, read-out: MC38 IC50. It counts as cell-based. Summed up:
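IC50 comes from nonlinear fits of endocytosis rate, calculated from the loss of surface PE-anti-CD274 flow signal relative to vehicle. Cells were MC38 mouse colon cancer cells engineered to express high human PD-L1. Compound exposure lasted 16 h at 37 °C, 5% CO2.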
(A flow cytometer gives signals particle by particle.)

For test [2], the system named is CHO-PDL1/Jurkat-PD1 cell pathway. As to the kind of experiment: Inhibition of CHO-PDL1/Jurkat-PD1 cell pathway (NFAT luciferase reporter). Conditions: for EC50: 6 hours incubation, luciferase signal; for maximal fold induction: relative to the signal value of the non-dosed group, read-out: Maximum induction fold. It counts as cell-based. How it is done:
Test Embodiment 3. Inhibitory Effect of the Compounds of the Present Disclosure on CHO-PDL1/Jurkat-PD1 Cell Pathway
Experimental purpose: The purpose of this test embodiment was to test the inhibitory effect of compounds on the CHO-PDL1/Jurkat-PD1 cell pathway.
Experimental method: Two stably transfected cell lines were included in this experiment, CHO-K1 cells stably transfected with PD-L1 and Jurkat cells stably transfected with PD-1 and NFAT luciferase reporter genes. Compounds were incubated with the two cell lines. Then, due to the inhibitory effect on the PD-1/PD-L1 pathway, the activation degree of Jurkat cells changed, so that the level of the reporter gene NFAT in the downstream of Jurkat cells changed, and the level of NFAT was characterized by detecting the signal value of luciferase, so that the inhibitory effect of the test compound on CHO-PDL1/Jurkat-PD1 pathway was characterized.
CHO-PDL1 cells (Promega, #J1252) were cultured to a suitable cell density. After digestion, the cells were resuspended by complete medium to become a suitable density of cell suspension. The cell suspension was plated 100 μL per well on a 96-well plate (Corning, #3610), and placed in a 37° C., 5% CO2 incubator and incubated overnight, and assay medium (RPMI 1640+2% FBS, RPMI 1640 Cat. No.: Gibco, #22400089, FBS Cat. No.: Gibco, #10091148) was used to prepare compound solutions of different concentrations. NFAT-luc2/PD1 Jurkat cells (Promega, #J1252) were collected and resuspended to the appropriate cell density using assay medium. The supernatant of the CHO-PDL1 cell culture plate was aspirated, and 40 μL of the prepared compound solution and 40 μL of resuspended NFAT-luc2/PD1 Jurkat cells were added, and incubated in a 5% CO2 incubator at 37° C. for 6 hours, and the cell plate was taken out, then 40 μL of One-Glo reagent (Promega, #E6120) was added to each well, shaked and mixed well, incubated in the dark at room temperature for 10 minutes, then put into a microplate reader and the luminescence program was used to read the luminescence value of the cell plate.
The EC50 value was fitted according to the compound concentration and the luminescence signal value, and the maximum induction fold of each compound relative to the signal value of the non-dosed group was calculated, as shown in Table 3.
On the technique in general: In a reporter assay the amount or activity of a reporter protein is the signal.

In the next test the target is T2, human PD-1/PD-L1 binding (Homo sapiens, UniProt Q9NZQ7).
T2 construct: PD-L1-His protein (19 to 238 amino acids) (Abcam #ab167713); purchased Abcam (PD-L1-His); R&D (PD-1-Fc) ab167713; 1086-PD
As to the kind of experiment: Inhibition of human PD-1/PD-L1 binding (TR-FRET/HTRF). Conditions: TR-FRET, PD-L1-His and PD-1-Fc; read-out: PD-1/PD-L1 binding IC50. The gist of the method: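 PD-L1-His (aa 19–238, diluted to 10 nM) and PD-1-Fc (aa 25–167, diluted to 20 nM) incubated with compounds (10 μM or 1 μM top, 3-fold, 11 doses) 60 min at room temperature, then anti-6HIS Eu cryptate/anti-human IgG-XL665 added for 3 h RT or overnight 4 °C. HTRF 665/620 nm ratio gave inhibition and IC50.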
(In general: In TR-FRET formats the signal depends on donor and acceptor labels being close together.)

In a further test the target is T3, human PD-L1 protein (Homo sapiens, UniProt Q9NZQ7).
T3 construct: purchased Acro Biosystems PD1-H5229
As to the kind of experiment: Thermal shift: melting temperature of PD-L1 protein. The class given is binding. Conditions: compound 10 μM, PD-L1 protein 2 μM, Tm minus DMSO vehicle control; read-out: ΔTm (° C.). Summed up:
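Human PD-L1 at 2 μM final was tested in […], 150 mM NaCl with SYPRO Orange, heated 25→95 °C at 0.03 °C/s in a PCR melt-curve run. Tm was taken per treatment; ΔTm is the shift relative to DMSO vehicle.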

For a further test, the system named is MC38-hPDL1 cells. As to the kind of experiment: In vitro cytotoxicity on MC38-hPDL1 cells (CellTiter-Glo). It counts as cell-based, mouse. How it is done:
(§1) Test Embodiment 5. In Vitro Cytotoxicity of the Compounds of the Present Disclosure on NFAT-Luc2/PD1 Jurkat Cells and MC38-hPDL1 Cells
(§2) Experimental purpose: To test the in vitro cytotoxicity of compounds on NFAT-luc2/PD1 Jurkat cells and MC38-hPDL1 cells.
(§3) When the cells were cultured to an appropriate degree of confluency, the cells were collected, and the cells was adjusted in an appropriate cell concentration by complete medium, then the cell suspension was plated in a 96-well plate, 90 μL per well, and put in a 37° C., 5% CO2 incubator overnight; compound solutions of different concentrations were prepared by DMSO and medium, and a vehicle control was set; compound solutions were added to a 96-well plate, 10 μL per well, and put in a 37° C., 5% CO2 incubator and cultured for 72 hours. After that, CellTiter-Glo solution was added, the mixture was shaken and mixed evenly, incubated in the dark for 10 minutes, and a BioTek Synergy H1 microplate reader was used for reading.
(§4) Luminescence signal value was used to calculate the inhibition rate, and the concentration and inhibition rate were fitted by nonlinear regression curve using Graphpad Prism software to obtain IC50 values, as shown in the following table: […]

Test [3] has as its system NFAT-luc2/PD1 Jurkat cells. The test is described as follows: In vitro cytotoxicity on NFAT-luc2/PD1 Jurkat cells (CellTiter-Glo). The following applies: 72 hours. It counts as cell-based. How it is done:
as §1, §2, §3, §4

Structures are written as SMILES.

T2 sequence (Q9NZQ7 19-238): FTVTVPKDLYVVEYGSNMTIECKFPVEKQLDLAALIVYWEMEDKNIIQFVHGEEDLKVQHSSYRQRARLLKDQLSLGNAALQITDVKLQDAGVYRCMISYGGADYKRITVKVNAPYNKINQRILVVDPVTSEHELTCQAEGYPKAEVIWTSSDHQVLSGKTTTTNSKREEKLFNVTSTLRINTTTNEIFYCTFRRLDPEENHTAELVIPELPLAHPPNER
T3 sequence (Q9NZQ7 19-238 limits assumed): as the sequence (Q9NZQ7 19-238) above
T1 sequence (Q9NZQ7 19-290): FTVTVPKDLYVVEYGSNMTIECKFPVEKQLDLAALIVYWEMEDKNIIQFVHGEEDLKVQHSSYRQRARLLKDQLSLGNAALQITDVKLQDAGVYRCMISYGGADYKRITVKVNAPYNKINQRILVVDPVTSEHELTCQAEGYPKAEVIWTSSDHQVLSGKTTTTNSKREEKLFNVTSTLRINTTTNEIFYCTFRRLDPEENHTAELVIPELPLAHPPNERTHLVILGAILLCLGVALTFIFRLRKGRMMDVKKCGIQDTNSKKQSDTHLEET

As usually defined, the EC50 is the concentration that produces a half-maximal response. Read a high EC50 as lower potency in that assay. As to `COc1cc(C(=O)Nc2cccc(-c3cccc(NC(=O)c4nc5c(n4C)CCN(C)C5)c3Cl)c2C)ncc1CNCCNC(C)=O` [Embodiment 40, N-(3′-(5-(((2-Acetylaminoethyl)amino)methyl)-4-methoxypicolinamido)-2-chloro-2′-methyl-[1,1′-biphenyl]-3-yl)-1,5-dimethyl-4,5,6,7-tetrahydro-1H-imidazo[4,5-c]pyridine-2-carboxamide], in test [1], the Emax amounted to 97% and the IC50 was 1.4 nM. In addition, in test [2], a half-maximal response (EC50) required 75 nM and the maximal fold induction turned out to be 4. The IC50 on human PD-1/PD-L1 binding is 2 nM.
On to `COc1cc(-c2cccc(-c3cccc(NC(=O)c4nc5c(n4C)CCN(C)C5)c3Cl)c2C)ncc1CNC[C@@H]1CCC(=O)N1` [Embodiment 58, (S)—N-(2-Chloro-3′-(4-methoxy-5-((((5-carbonylpyrrolidin-2-yl)methyl)amino)methyl)pyridin-2-yl)-2′-methyl-[1,1′-biphenyl]-3-yl)-1,5-dimethyl-4,5,6,7-tetrahydro-1H-imidazo[4,5-c]pyridine-2-carboxamide], for which, in test [1], the Emax was 94% and the IC50 was found to be 5.1 nM. Moreover, in test [2], the EC50 stood at 99 nM and the maximal fold induction came to 3.5. For the same molecule, on human PD-1/PD-L1 binding, the IC50 was 1.5 nM.
The ΔTm is the shift of the melting midpoint relative to a reference. `COc1nc(-c2cccc(-c3cccc(NC(=O)c4nc5c(n4C)CCN(C)C5)c3Cl)c2Cl)ccc1CN1CC(CNC(C)=O)C1` [Embodiment 181, N-(3′-(5-((3-(Acetylaminomethyl)azetidin-1-yl)methyl)-6-methoxypyridin-2-yl)-2,2′-dichloro-[1,1′-biphenyl]-3-yl)-1,5-dimethyl-4,5,6,7-tetrahydro-1H-imidazo[4,5-c]pyridine-2-carboxamide]: the Emax in test [1] came out at 97%. This molecule also yielded an EC50 in test [2] of 59 nM. For the same molecule, on human PD-1/PD-L1 binding, the IC50 is 3.4 nM. The ΔTm at 10 µM on human PD-L1 protein was 15 °C.
Turning to `CNC(=O)C1CN(Cc2ccc(-c3cccc(-c4cccc(NC(=O)c5nc6c(n5C)CCN(C)C6)c4Cl)c3Cl)nc2OC)C1` [Embodiment 184, N-(2,2′-Dichloro-3′-(6-methoxy-5-((3-(methylcarbamoyl)azetidin-1-yl)methyl)pyridin-2-yl)-[1,1′-biphenyl]-3-yl)-1,5-dimethyl-4,5,6,7-tetrahydro-1H-imidazo[4,5-c]pyridine-2-carboxamide], the Emax in test [1] was 96%. For the same molecule, in test [2], the EC50 turned out to be 62 nM and the maximal fold induction amounted to 2.8. Also, the IC50 on human PD-1/PD-L1 binding turned out to be 7 nM. In addition, the thermal shift (ΔTm) at 10 µM at human PD-L1 protein was 16.7 °C.
Take `COc1nc(-c2cccc(-c3cccc(NC(=O)c4nc5c(n4C)CCN(C)C5)c3Cl)c2Cl)ccc1CN1CC2(CN(C=O)C2)C1` [Embodiment 193, N-(2,2′-Dichloro-3′-(5-((6-formyl-2,6-diazaspiro[3.3]heptan-2-yl)methyl)-6-methoxypyridin-2-yl)-[1,1′-biphenyl]-3-yl)-1,5-dimethyl-4,5,6,7-tetrahydro-1H-imidazo[4,5-c]pyridine-2-carboxamide]: the Emax in test [1] is 96%. In test [2], the EC50 was found to be 84 nM and the maximal fold induction was 2.8. For the same molecule, on human PD-1/PD-L1 binding, the IC50 was 6.4 nM. For the same molecule, the ΔTm at 10 µM at human PD-L1 protein amounted to 12.3 °C.
In the same order, the values of `COc1nc(-c2cccc(-c3cccc(NC(=O)c4nc5c(n4C)CCN(C)C5)c3Cl)c2Cl)ccc1CN1CC2(CCN(C(C)=O)C2)C1` [Embodiment 195, N-(3′-(5-((6-Acetyl-2,6-diazaspiro[3.4]octan-2-yl)methyl)-6-methoxypyridin-2-yl)-2,2′-dichloro-[1,1′-biphenyl]-3-yl)-1,5-dimethyl-4,5,6,7-tetrahydro-1H-imidazo[4,5-c]pyridine-2-carboxamide] are 96%, 89 nM, 3.6, 3.6 nM and 14.5 °C.
Consider `COc1nc(-c2cccc(-c3cccc(NC(=O)c4nc5c(n4C)CCN(C)C5)c3Cl)c2Cl)ccc1CN1CCC2(CC1)CN(C(C)=O)C2` [Embodiment 197, N-(3′-(5-((2-Acetyl-2,7-diazaspiro[3.5]nonan-7-yl)methyl)-6-methoxypyridin-2-yl)-2,2′-dichloro-[1,1′-biphenyl]-3-yl)-1,5-dimethyl-4,5,6,7-tetrahydro-1H-imidazo[4,5-c]pyridine-2-carboxamide], for which the Emax in test [1] amounted to 93%. Moreover, in test [2], the EC50 was determined as 67 nM and the maximal fold induction amounted to 3.5. Further, the IC50 on human PD-1/PD-L1 binding was 4.3 nM. Moreover, on human PD-L1 protein, the ΔTm at 10 µM was determined as 16 °C.
Turning to `COc1nc(-c2cccc(-c3cccc(NC(=O)c4nc5c(n4C)CCN(C)C5)c3Cl)c2Cl)ncc1CN1CC2(C1)CN(C(C)=O)C2` [Embodiment 222, N-(3′-(5-((6-Acetyl-2,6-diazaspiro[3.3]heptan-2-yl)methyl)-4-methoxypyrimidin-2-yl)-2,2′-dichloro-[1,1′-biphenyl]-3-yl)-1,5-dimethyl-4,5,6,7-tetrahydro-1H-imidazo[4,5-c]pyridine-2-carboxamide], the “MC38-hPDL1 inhibition rate (%)” value in the test on MC38-hPDL1 cells (72 hours) stood at 0%. In addition, the IC50 was over 10000 nM in the test on MC38-hPDL1 cells (Mus musculus, MC38-hPD-L1, 72 hours); 5.2 nM on human PD-1/PD-L1 binding; over 10000 nM in test [3] (Homo sapiens, Jurkat). Further, the Emax in test [1] was found to be 92%. In addition, the “Jurkat-PD1 inhibition rate (%)” value in test [3] was 36%.
Turning to `COc1nc(-c2cccc(-c3cccc(NC(=O)c4nc5c(n4C4CC4)CCN(C)C5)c3Cl)c2Cl)ccc1CN1CC2(C1)CN(C(C)=O)C2` [Embodiment 243, N-(3′-(5-((6-Acetyl-2,6-diazaspiro[3.3]heptan-2-yl)methyl)-6-methoxypyridin-2-yl)-2,2′-dichloro-[1,1′-biphenyl]-3-yl)-1-cyclopropyl-5-methyl-4,5,6,7-tetrahydro-1H-imidazo[4,5-c]pyridine-2-carboxamide], in test [1], the Emax amounted to 91%. Moreover, in test [2], a half-maximal effect (EC50) was put at 74 nM and the maximal fold induction was 3.1. On human PD-1/PD-L1 binding, the IC50 was 8.4 nM.
